Like-named read-outs stand apart in the source and are kept apart here.
What was measured:
[1] = target: T1, 11beta hydroxylase (CYP11B1) (Rattus norvegicus, UniProt P15393); assay: Suppression of plasma corticosterone levels in ACTH-stimulated rats; format: in vivo, Wistar rats; conditions: 4 mg/kg p.o., 2 h after dosing vs 1 h before dosing
T1 construct: from tissue; host or cells: live Wistar rat (adrenal gland)
T1 sequence (P15393 25-499): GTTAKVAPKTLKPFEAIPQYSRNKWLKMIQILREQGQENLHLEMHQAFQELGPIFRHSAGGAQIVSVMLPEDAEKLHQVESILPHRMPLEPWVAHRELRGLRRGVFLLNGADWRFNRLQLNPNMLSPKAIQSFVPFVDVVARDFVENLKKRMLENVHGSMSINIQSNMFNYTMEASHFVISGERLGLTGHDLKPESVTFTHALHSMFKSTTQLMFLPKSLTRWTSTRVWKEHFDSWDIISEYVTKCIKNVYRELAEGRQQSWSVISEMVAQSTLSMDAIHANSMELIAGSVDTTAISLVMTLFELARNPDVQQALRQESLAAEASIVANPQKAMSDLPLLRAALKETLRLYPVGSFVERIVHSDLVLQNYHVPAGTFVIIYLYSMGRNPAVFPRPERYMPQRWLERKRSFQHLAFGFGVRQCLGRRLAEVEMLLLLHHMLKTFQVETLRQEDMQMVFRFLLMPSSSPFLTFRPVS
Procedure: (§1) Adult male Wistar rats weighing between 250 and 350 grams are kept under the usual 12-hour light and 12-hour dark conditions at a temperature of 23° C.±2° C. On the first day of the experiment, the animals receive a subcutaneous injection of a depot ACTH product in a dose of 1.0 mg/kg weight (SYNACTHEN-Depot, Novartis, Basel, CH) 16 hours prior to the administration of a test compound. […] An alternative method to stimulate aldosterone secretion consists in subjecting rats to a low salt diet for 48 hours and applying the diuretic furosemide at 10 mg/kg by subcutaneous or intraperitoneal administration 16 hours, respectively 2 hours prior to the start of the experiment. On the second day of the experiment, the animals are divided into test groups of 5 animals and subjected to a first bleed 1 hour prior to the administration of test compound. […] The aldosterone concentrations of the plasma samples can be determined with a radioimmunoassay as described above for the in vitro test systems. […]
The selective suppression of plasma steroid levels as for instance aldosterone in comparison to corticosterone may serve as a measure for in vivo bioavailability and pharmacodynamic enzyme inhibitory activity of the herein described compounds. The evaluation of the data may occur relative to the application of vehicle or quantitatively by determination of the area under the curve (AUC). […]

[2] = target: T2, recombinant human Cyp19 enzyme (aromatase) (Homo sapiens, UniProt P11511); assay: Cyp19/MFC high throughput aromatase inhibition kit; format: biochemical
T2 construct: purchased Becton Dickinson Biosciences, San Jose, Calif., USA
T2 sequence (P11511 1-503): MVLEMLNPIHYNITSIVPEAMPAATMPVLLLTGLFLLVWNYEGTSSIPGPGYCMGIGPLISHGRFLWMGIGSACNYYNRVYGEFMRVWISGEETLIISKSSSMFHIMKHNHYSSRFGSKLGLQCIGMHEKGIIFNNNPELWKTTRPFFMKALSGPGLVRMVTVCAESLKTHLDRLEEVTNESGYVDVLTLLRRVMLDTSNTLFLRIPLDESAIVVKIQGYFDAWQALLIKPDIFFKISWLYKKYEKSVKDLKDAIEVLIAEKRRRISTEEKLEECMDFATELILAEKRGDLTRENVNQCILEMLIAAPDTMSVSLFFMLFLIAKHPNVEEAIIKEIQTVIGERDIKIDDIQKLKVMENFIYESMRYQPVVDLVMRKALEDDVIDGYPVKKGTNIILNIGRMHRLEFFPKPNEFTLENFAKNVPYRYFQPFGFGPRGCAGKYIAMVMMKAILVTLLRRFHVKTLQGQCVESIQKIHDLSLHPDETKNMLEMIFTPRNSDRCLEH
Procedure: The compounds of the formula (I′) have at least one asymmetric carbon atom, which is labelled “*”. A compound of the formula (I′) is to be understood as a compound having a specific configuration around the designated asymmetric carbon atom. If a synthesis method is used which leads to racemic compounds, the racemate resolution is carried out in accordance with conventional methods, such as via a chiral HPLC column. […] The aforementioned aromatase inhibitory activity can, as the skilled worker is well aware and as described below, be comfortably determined via the commercial Cyp19 enzyme inhibition kit (vide infra). In the abovementioned inhibition kit, compounds of the formula (I′) have an activity which is at least 10 times lower, preferably 20 times lower than the compounds of the formula (I′) with the opposite configuration around the asymmetric carbon atom labelled “*”.
The enzyme aromatese (CYP19) mediates the rate-limiting step of estrogen biosynthesis in human and rodent species. As estrogens control the sexual characteristics and reproduction as well as various structural and functional tissue features, compounds intended for the herein disclosed therapeutic use should at therapeutic dose levels show no or only minor interference with aromatase.
The concentration-dependent interference of the compounds with aromatase can be measured in vitro using a commercial Cyp19 enzyme inhibition kit and the manufacturer's instructions.
The Cyp19/methoxy-4-trifluoromethyl-coumarin (MFC) high throughput inhibition kit (Becton Dickinson Biosciences, San Jose, Calif., USA), for example, is designed to screen for potential inhibitors of Cyp19 catalytic activity in a 96-well format. The kit includes recombinant human Cyp19 enzyme in the form of supersomes, a fluorescent P450 substrate, an NADPH regenerating system, a reaction buffer and a stop reagent. MFC, the fluorogenic substrate is rapidly converted by Cyp19 supersomes to the highly fluorescent product 7-hydroxy-4-trifluoromethyl coumarin (7-HFC). The execution of the assay in the presence of various concentrations of inhibitor compounds ranging from 0.2 nanomolar to […] occurs according to the manufacturer's instructions. The concentration-dependent inhibition of aromatase activity can be quantified using the equation described above for the in vitro testing of aldosterone synthase inhibition in NCI-H295R cells to generate IC50 values (inhibitory concentration in mol/l yielding 50% of the maximal inhibition).

[3] = target: T3, aldosterone synthase (CYP11B2) (Rattus norvegicus, UniProt P30099); assay: Suppression of plasma aldosterone levels in ACTH-stimulated rats; format: in vivo, Wistar rats; conditions: 4 mg/kg p.o., 2 h after dosing vs 1 h before dosing
T3 construct: from tissue; host or cells: live Wistar rat (adrenal gland, zona glomerulosa)
T3 sequence (P30099 35-510): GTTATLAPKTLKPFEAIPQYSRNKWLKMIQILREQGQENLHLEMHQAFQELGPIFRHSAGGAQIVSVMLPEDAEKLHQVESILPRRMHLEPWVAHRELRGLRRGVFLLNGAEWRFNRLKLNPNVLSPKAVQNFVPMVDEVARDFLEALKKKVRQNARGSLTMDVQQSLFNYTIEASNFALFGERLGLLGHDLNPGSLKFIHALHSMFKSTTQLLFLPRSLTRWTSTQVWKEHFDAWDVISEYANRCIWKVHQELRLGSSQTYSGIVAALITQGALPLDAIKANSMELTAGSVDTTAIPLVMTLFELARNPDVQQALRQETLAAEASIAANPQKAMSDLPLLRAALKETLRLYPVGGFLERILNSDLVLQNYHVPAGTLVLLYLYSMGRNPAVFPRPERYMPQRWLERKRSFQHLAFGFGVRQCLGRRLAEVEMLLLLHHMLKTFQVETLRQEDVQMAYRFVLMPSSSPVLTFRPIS
Procedure: The target efficacy of the compounds disclosed in the present invention to dose-dependently suppress aldosterone levels in vivo may be assessed with the following protocol:
as §1, with “experiment.” for “experiment. On the second day of the experiment, the animals are divided into test groups of 5 animals and subjected to a first bleed 1 hour prior to the administration of test compound.”
The selective suppression of plasma steroid levels as for instance aldosterone in comparison to corticosterone may serve as a measure for in vivo bioavailability and pharmacodynamic enzyme inhibitory activity of the herein described compounds. The evaluation of the data may occur relative to the application of vehicle or quantitatively by determination of the area under the curve (AUC).

[4] = average of several measurements, read-out: IC50 value (aromatase inhibition)
[5] = enantiomers with differing aromatase inhibition, read-out: IC50 value (aromatase inhibition, enantiomers)

IC50 [2, 5]	Compound	Corticosterone levels (% change at 2 h) [1]	IC50 [2, 4]	Aldosterone levels (% change at 2 h) [3]
–	N#Cc1ccc2c(c1)C1(CCCn3cncc31)OC2 (centres unmarked) [Example 4, 6′,7′-Dihydro-3H,5′H-spiro[2-benzofuran-1,8′-imidazo[1,5-a]pyridine]-6-carbonitrile]	0.9%	406 nM	−50.2%
922 nM	N#Cc1ccc2c(c1)COC21CCn2cncc21 (single isomer, unassigned) [Example 23, (1S) or (1R)-5′,6′-Dihydro-3H-spiro[2-benzofuran-1,7′-pyrrolo[1,2-c]imidazole]-5-carbonitrile]	–	–	–
31.8 nM	N#Cc1ccc2c(c1)COC21CCn2cncc21 (single isomer, unassigned) [antipode of 23]	–	–	–
–	N#Cc1ccc2c(c1)COC21CCCn2cncc21 (centres unmarked) [Example 1, 6′,7′-Dihydro-3H,5′H-spiro[2-benzofuran-1,8′-imidazo[1,5-a]pyridine]-5-carbonitrile]	−7.7%	64.6 nM	−67.6%

— US8324235B2, “Heterocyclic spiro-compounds” (Novartis AG, priority 2007, dated 2012)
